Assay [1] addresses T1, E. coli FimH (Escherichia coli, UniProt Q1R2J4). As to the kind of experiment: SPR kinetic analysis of FimH against immobilized 6-aminohexyl α-D-mannopyranoside (4). It is filed as binding. Conditions: for Kd: KD = koff/kon. On the set-up: The FimH residues 1-158 were isolated from the E. coli strain UTI89; made in house. The protocol:
First, the equilibrium dissociation constant (KD) of FimH against immobilized 6-aminohexyl α-D-mannopyranoside (4) was determined. The ligand 6-aminohexyl α-D-mannopyranoside (10 mM in H2O) was immobilized via standard amine carbodiimide coupling chemistry (and blocking with ethanolamine as per the manufacturer’s procedure) to obtain 364 response units (RU) (see sensorgram in SI). The reference channel was treated similarly without ligand. A concentration series of the analyte FimH (1024 to 8 nM in running buffer, 2-fold dilutions) was then injected over the surface (700 s association time; 1200 s dissociation time; 30 μL/min flow rate; 25 °C temperature; running buffer: PBS pH 7.45, 3 mM EDTA supplemented with 0.005% Tween-20; regeneration: 30 s of 10 mM Glycine pH 1.5) and the response was double-referenced by subtracting the reference channel and the response with no FimH (running buffer only). Since equilibrium could not be reached during injection, KD was obtained from the extracted kinetic rate constants (KD = koff / kon) from a non-linear globally fitted 1:1 Langmuir binding isotherm containing a mass transfer constant (tc) and locally fitted refractive index constant (RI) (Biacore T200 evaluation software v1.0, GE Healthcare Life Sciences) of the obtained sensorgrams.
On the technique in general: SPR reads the build-up and loss of mass on a sensor chip optically.

In assay [2] the target is T1, E. coli FimH. As to the kind of experiment: SPR solution affinity (competition) of ligands for FimH on immobilized 6-aminohexyl α-D-mannopyranoside. The assay is classed as binding. On the set-up: The FimH residues 1-158 were isolated from the E. coli strain UTI89; made in house. Conditions: for Relative Potency: relative to MeαMan (1) = 1; for ΔG°: from SPR Kd. From the text: To this end, we first immobilized 6-aminohexyl α-D-mannopyranoside (4) on the CM5 gold chip using the conventional carbodiimide method to which we allowed FimH to bind with and without our competitive inhibitors (see sensorgram of 4 in the SI). The equilibrium dissociation constant (Kd) of the interaction was then normalized, the data sets are illustrated in Figure 5 and values given in Table 1 (see experimental details). This modification from the previous protocol using 8-aminooctyl α-D-mannoside was found much more practical and reliable given its very high affinity to FimH which made the gold chip regeneration from sample to sample too complicated (very slow koff).
SPR Solution Affinity of Ligands for the E. coli FimH Adhesin
Second, the equilibrium dissociation constants (KD) of FimH against the compounds of interest were determined by measuring the amount of free FimH in a series of concentrations of the compounds of interest at a constant concentration of FimH (close to the Kd of FimH: 6-aminohexyl α-D-mannopyranoside) after equilibrium in solution. A concentration series of the ligand of interest (65536 to 0.5 nM in running buffer, 2-fold dilutions) was equilibrated overnight with analyte FimH (40 nM) and then injected over the previous ligand 6-aminohexyl α-D-mannopyranoside-immobilized surface (300 s association time; 300 s dissociation time; 30 μL/min flow rate; 25 °C temperature; running buffer: 5% DMSO, PBS pH 7.45, 3 mM EDTA supplemented with 0.05% Tween-20; regeneration: 30 s of 10 mM Glycine pH 1.5) and the response was single-referenced by subtracting the reference channel and solvent corrected with a DMSO calibration curve. Since equilibrium could not be reached during injection, the responses (free [FimH], Y-axis) at the end of the injections were normalized with the response from FimH only ([compound of interest] = 0) and then plotted over the compounds of interest concentrations (X-axis).

The target of assay [3] is T1, E. coli FimH. Put plainly: Previously reported SPR Kd against FimH. The assay is classed as binding. On the set-up: The FimH residues 1-158 were isolated from the E. coli strain UTI89; made in house. Conditions: 5 versus 7; from Kd values of ref 18.
Assay [4] deals with T1, E. coli FimH. On the set-up: The FimH residues 1-158 were isolated from the E. coli strain UTI89; made in house. Conditions: read-out: Kd (SPR), cited from earlier work.
Assay [5] addresses T1, E. coli FimH. On the set-up: The FimH residues 1-158 were isolated from the E. coli strain UTI89; made in house. Conditions: read-out: IC50 (SPR); cited from earlier work.
In assay [6] the target is T1, E. coli FimH. Conditions: from IC50 values of ref 20.

Where two headings read alike, the source gives them in different places.

For orientation: Kd means the free concentration of one partner at which half of the binding sites on the other are occupied at equilibrium, for simple one-to-one binding. `NCCCCCCO[C@H]1O[C@H](CO)[C@@H](O)[C@H](O)[C@@H]1O` [Compound 4, 6-aminohexyl α-D-mannopyranoside]: the Kd stood at 38.6 nM on E. coli FimH [1] (KD, fitted constant) and 38.58 ± 0.11 nM at E. coli FimH [1] (Kd, immobilized ligand 4, FimH as analyte, 25 °C, PBS pH 7.45). Besides, the “dissociation rate constant (koff)” value at E. coli FimH [1] (fitted constant (dissociation rate), 1:1 Langmuir with mass transfer) is 2,06E-04 1/s. Besides, on E. coli FimH [1] (read-out: ka), the kon is 5340 M⁻¹ s⁻¹. In addition, on E. coli FimH [1] (relative to MeαMan (1) = 1, immobilized ligand 4), the “Relative Potency” value is reported as 12.

As for `OCC1OC(OCC=Cc2ccc(-c3ccccc3)cc2)C(O)C(O)C1O` (stereo not shown) [Compound 5], at E. coli FimH [2], the equilibrium dissociation constant (Kd) amounted to 19.9 ± 1.22 nM and the “Relative Potency” value is recorded as 24. Besides, the “fold better Kd than 7” value on E. coli FimH [3] came to 135 fold. The Kd at E. coli FimH [4] was 3 nM.

In the case of `OCC1OC(CC=Cc2ccc(-c3ccccc3)cc2)C(O)C(O)C1O` (stereo not shown) [Compound 6], at E. coli FimH [2], binding was put at a Kd of 11.4 ± 0.63 nM and the “Relative Potency” value was 42.

In the case of `OC[C@H]1O[C@H](OCC#Cc2ccc(-c3ccccc3)cc2)[C@@H](O)[C@@H](O)[C@@H]1O` [Compound 7], the Kd at E. coli FimH [4] was 405 nM.

Take `OCC1OC(SCC=Cc2ccc(-c3ccccc3)cc2)C(O)C(O)C1O` [Compound 12, (2E)-3-(1,1’-biphenyl-2-propen-1-yl) 1-thio-α-D-mannopyranoside]: on E. coli FimH [2], binding was characterised by a dissociation constant (Kd) of 94.4 ± 6.2 nM and the “Relative Potency” value is listed as 5. Also, the “difference in respective Kds between 5 and 12” value on E. coli FimH [2] (O-linked 5 versus S-linked 12) is “about 5 fold”.

By IC50 is commonly meant the concentration at which inhibition is half-maximal. Take `CCCCCCCO[C@H]1O[C@H](CO)[C@@H](O)[C@H](O)[C@@H]1O` [HeptylαMan (3), Heptyl α-D-mannopyranoside]: at E. coli FimH [2], the Kd came to 2.37 ± 0.5 nM, the “ΔG°” value is -11.76 kcal/mol and the “Relative Potency” value is 200. Further, at E. coli FimH [4] (reported value for the golden standard), the equilibrium dissociation constant (Kd) was 5 nM. Also, the IC50 on E. coli FimH [5] was 160 nM.

Turning to `CO[C@H]1O[C@H](CO)[C@@H](O)[C@H](O)[C@@H]1O` [MeαMan (1), Methyl α-D-mannopyranoside], on E. coli FimH [2], the Kd is 475 ± 5.7 nM, the “ΔG°” value was -8.62 kcal/mol and the “Relative Potency” value is listed as 1.

In the case of `O=[N+]([O-])c1ccc(O[C@H]2O[C@H](CO)[C@@H](O)[C@H](O)[C@@H]2O)cc1` [PNPαMan (2), para-nitrophenyl α-D-mannopyranoside], at E. coli FimH [2], the affinity, expressed as Kd, was 4.21 ± 0.72 nM; the “ΔG°” value is -11.42 kcal/mol; the “Relative Potency” value was determined as 113.

Turning to `CCCCCCCS[C@H]1O[C@H](CO)[C@@H](O)[C@H](O)[C@@H]1O` [S-linked heptyl α-D-mannopyranoside], at E. coli FimH [6], the “difference between O- and S-linked heptyl α-D-mannopyranosides” value is given as 3.4 fold. For the same compound, the IC50 at E. coli FimH [5] is 547 nM.

Source of the values: article PMC6804135, “Comparative Study of Aryl O-, C-, and S-Mannopyranosides as Potential Adhesion Inhibitors toward Uropathogenic E. coli FimH” (Molecules, 2019).
